Data taken from US9433622B2, “Pyrimidine compounds useful in the treatment of diseases mediated by IKKE and/or TBK1 mechanisms” (DOMAINEX LIMITED, priority 2013, dated 2016).

Legend:
IKKε = IKKε (Homo sapiens (Human), UniProt Q14164); experiment: Lanthascreen TR-FRET kinase inhibition assay, IKKε; type: biochemical; conditions: 20 μM ATP (apparent Km), 2 nM kinase, 1 h
How it was run: (§1)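 TR-FRET: terbium phosphospecific antibody detects phosphorylation of 400 nM fluorescein-IkBα peptide, 20 μM ATP, 20 °C, HEPES pH 7.5 with 3% DMSO. IKKε at 2 nM, 1 h reaction; TBK1 at 8 nM, 2.5 h reaction; started by kinase addition.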

TBK1 = TBK1 (Homo sapiens (Human), UniProt Q9UHD2); experiment: Lanthascreen TR-FRET kinase inhibition assay, TBK1; type: biochemical; conditions: 20 μM ATP (apparent Km), 8 nM kinase, 2.5 h
How it was run: as §1

Chain of TBK1 (Q9UHD2 whole entry): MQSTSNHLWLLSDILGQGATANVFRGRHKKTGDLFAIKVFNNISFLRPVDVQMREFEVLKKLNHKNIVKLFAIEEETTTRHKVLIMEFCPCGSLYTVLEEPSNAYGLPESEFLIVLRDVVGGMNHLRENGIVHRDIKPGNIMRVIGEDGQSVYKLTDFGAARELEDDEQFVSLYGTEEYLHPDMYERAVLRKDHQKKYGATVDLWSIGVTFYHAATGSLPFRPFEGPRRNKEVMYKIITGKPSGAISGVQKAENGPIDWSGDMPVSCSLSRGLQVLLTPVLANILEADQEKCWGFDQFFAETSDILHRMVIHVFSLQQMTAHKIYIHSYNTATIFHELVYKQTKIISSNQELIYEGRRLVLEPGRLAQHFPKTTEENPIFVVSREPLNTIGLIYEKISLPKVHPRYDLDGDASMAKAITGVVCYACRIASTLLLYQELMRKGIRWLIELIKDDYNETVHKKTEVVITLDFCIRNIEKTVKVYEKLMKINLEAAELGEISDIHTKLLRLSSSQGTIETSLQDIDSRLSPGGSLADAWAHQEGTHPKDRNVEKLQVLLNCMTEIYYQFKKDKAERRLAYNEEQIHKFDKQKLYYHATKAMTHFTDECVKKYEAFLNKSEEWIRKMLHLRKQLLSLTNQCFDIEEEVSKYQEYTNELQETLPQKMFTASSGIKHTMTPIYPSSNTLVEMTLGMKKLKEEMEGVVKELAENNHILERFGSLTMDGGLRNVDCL
Chain of IKKε (Q14164 whole entry): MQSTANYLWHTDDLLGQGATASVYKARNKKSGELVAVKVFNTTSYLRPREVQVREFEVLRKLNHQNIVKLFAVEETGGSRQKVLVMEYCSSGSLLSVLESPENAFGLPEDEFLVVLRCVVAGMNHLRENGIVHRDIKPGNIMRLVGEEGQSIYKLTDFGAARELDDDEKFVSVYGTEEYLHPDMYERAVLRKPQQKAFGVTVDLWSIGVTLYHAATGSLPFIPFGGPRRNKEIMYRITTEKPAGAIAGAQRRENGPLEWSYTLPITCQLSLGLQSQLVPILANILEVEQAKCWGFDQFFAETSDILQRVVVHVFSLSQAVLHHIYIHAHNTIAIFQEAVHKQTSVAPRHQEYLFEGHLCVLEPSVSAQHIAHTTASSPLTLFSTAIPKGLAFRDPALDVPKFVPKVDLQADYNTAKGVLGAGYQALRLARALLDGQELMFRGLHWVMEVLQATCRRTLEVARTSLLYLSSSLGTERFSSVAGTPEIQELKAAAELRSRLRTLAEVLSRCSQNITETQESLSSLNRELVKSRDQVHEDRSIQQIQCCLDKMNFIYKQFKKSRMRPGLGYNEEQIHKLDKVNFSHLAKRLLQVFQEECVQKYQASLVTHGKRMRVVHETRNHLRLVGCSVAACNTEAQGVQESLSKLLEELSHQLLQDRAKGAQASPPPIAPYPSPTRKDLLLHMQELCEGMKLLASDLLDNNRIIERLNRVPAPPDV

Row | IC50 (IKKε) [nM] | IC50 (TBK1) [nM] | Structure (SMILES)
1 | < 100 | < 100 | CC(C(N)=O)N(C)c1ncc(-c2ccnc(Nc3ccc(CN4CCOCC4)nc3)n2)cc1C#N (stereo not shown) [DMX-135, 2-({3-Cyano-5-[2-(6-morpholin-4-ylmethyl-pyridin-3-ylamino)-pyrimidin-4-yl]-pyridin-2-yl}-methyl-amino)-propionamide]
2 | < 30 | < 15 | N#Cc1cc(-c2ccnc(Nc3ccc(N4CCOCC4)cc3)n2)cnc1N1CCCC1 [DMX-5, 5-[2-(4-Morpholin-4-yl-phenylamino)-pyrimidin-4-yl]-2-pyrrolidin-1-yl-nicotinonitrile]
3 | < 15 | < 15 | CN1CCN(c2ccc(Nc3nccc(-c4cnc(N5CC[C@H](F)C5)c(C#N)c4)n3)cn2)CC1 [DMX-24, 2-((S)-3-Fluoro-pyrrolidin-1-yl)-5-{2-[6-(4-methyl-piperazin-1-yl)-pyridin-3-ylamino]-pyrimidin-4-yl}-nicotinonitrile]
4 | < 1000 | < 100 | N#Cc1cc(-c2ccnc(Nc3ccc(CN4CCOCC4)nc3)n2)cnc1NCC1CCOC1 (stereo not shown) [DMX-138, 5-[2-(6-Morpholin-4-ylmethyl-pyridin-3-ylamino)-pyrimidin-4-yl]-2-[(tetrahydro-furan-3-ylmethyl)-amino]-nicotinonitrile]
5 | < 30 | < 30 | Cc1nccn1CC(=O)Nc1ccc(Nc2nccc(-c3cnc(N4CC[C@H](F)C4)c(C#N)c3)n2)cn1 [DMX-128, N-(5-{4-[5-Cyano-6-((S)-3-fluoro-pyrrolidin-1-yl)-pyridin-3-yl]-pyrimidin-2-ylamino)-pyridin-2-yl)-2-(2-methyl-imidazol-1-yl)-acetamide]
6 | < 1000 | < 1000 | CC(=O)NCC1CCCN1c1ncc(-c2ccnc(Nc3ccc(CN4CCOCC4)nc3)n2)cc1C#N (stereo not shown) [DMX-130, N-(1-{3-Cyano-5-[2-(6-morpholin-4-ylmethyl-pyridin-3-ylamino)-pyrimidin-4-yl]-pyridin-2-yl}-pyrrolidin-2-ylmethyl)-acetamide]
7 | < 15 | < 30 | N#Cc1cc(-c2ccnc(Nc3ccc(NCCN4CCOCC4)nc3)n2)cnc1N1CC[C@H](F)C1 [DMX-67, 2-((S)-3-Fluoro-pyrrolidin-1-yl)-5-{2-[6-(2-morpholin-4-yl-ethylamino)-pyridin-3-ylamino]-pyrimidin-4-yl}-nicotinonitrile]
8 | < 30 | < 30 | N#Cc1cc(-c2ccnc(Nc3ccc(C(N)=O)nc3)n2)cnc1N1CC[C@H](F)C1 [DMX-47, 5-{4-[5-Cyano-6-((S)-3-fluoro-pyrrolidin-1-yl)-pyridin-3-yl]-pyrimidin-2-ylamino}-pyridine-2-carboxylic acid amide]
9 | < 100 | < 30 | N#Cc1cc(-c2ccnc(Nc3ccc(NC(=O)CN4CCNCC4)nc3)n2)cnc1N1CC[C@H](F)C1 [DMX-31, N-(5-{4-[5-Cyano-6-((S)-3-fluoro-pyrrolidin-1-yl)-pyridin-3-yl]-pyrimidin-2-ylamino}-pyridin-2-yl)-2-piperazin-1-yl-acetamide]
10 | < 1000 | < 100 | N#Cc1cc(-c2nc(Nc3ccc(CN4CCOCC4)nc3)ncc2F)cnc1NC1CC1 [DMX-123, 2-Cyclopropylamino-5-[5-fluoro-2-(6-morpholin-4-ylmethyl-pyridin-3-ylamino)-pyrimidin-4-yl]-nicotinonitrile]
11 | < 30 | < 30 | N#Cc1cc(-c2ccnc(Nc3ccnc(N4CCOCC4)c3)n2)cnc1N1CC[C@H](O)C1 [DMX-71, 2-((S)-3-Hydroxy-pyrrolidin 1-yl)-5-[2-(2-morpholin-4-yl-pyridin-4-ylamino)-pyrimidin-4-yl]-nicotinonitrile]
12 | < 30 | < 30 | CC(C)N1CCN(CC(=O)Nc2ccc(Nc3nccc(-c4cnc(N5CC[C@H](F)C5)c(C#N)c4)n3)cn2)CC1 [DMX-23, N-(5-{4-[5-Cyano-6-((S)-3-fluoro-pyrrolidin-1-yl)-pyridin-3-yl]-pyrimidin-2-ylamino}-pyridin-2-yl)-2-(4-isopropyl-piperazin-1-yl)-acetamide]
13 | < 30 | < 100 | COCCNCC(=O)Nc1ccc(Nc2nccc(-c3cnc(N4CC[C@H](F)C4)c(C#N)c3)n2)cn1 [DMX-54, N-(5-{4-[5-Cyano-6-((S)-3-fluoro-pyrrolidin-1-yl)-pyridin-3-yl]-pyrimidin-2-ylamino}-pyridin-2-yl)-2-(2-methoxy-ethylamino)-acetamide]
14 | < 100 | < 100 | N#Cc1cc(-c2ccnc(Nc3ccc(NC(=O)CN4CCOCC4)nc3)n2)cnc1N1CCCOCC1 [DMX-85, N-{5-[4-(5-Cyano-6-[1,4]oxazepan-4-yl-pyridin-3-yl)-pyrimidin-2-ylamino]-pyridin-2-yl}-2-morpholin-4-yl-acetamide]
15 | < 100 | < 100 | N#Cc1cc(-c2ccnc(Nc3ccc(CN4CCCOCC4)nc3)n2)cnc1N1CC[C@H](F)C1 [DMX-103, 2-((S)-3-Fluoro-pyrrolidin-1-yl)-5-[2-(6-[1,4]oxazepan-4-ylmethyl-pyridin-3-ylamino)-pyrimidin-4-yl]-nicotinonitrile]
16 | < 30 | < 100 | N#Cc1cc(-c2ccnc(Nc3ccc(NC(=O)CN4CC[C@H](F)C4)nc3)n2)cnc1N1CC[C@H](F)C1 [DMX-69, N-(5-{4-[5-Cyano-6-((S)-3-fluoro-pyrrolidin-1-yl)-pyridin-3-yl]-pyrimidin-2-ylamino}-pyridin-2-yl)-2-((S)-3-fluoro-pyrrolidin-1-yl)-acetamide]
17 | < 100 | < 100 | CC(C(=O)Nc1ccc(Nc2nccc(-c3cnc(N4CC[C@H](F)C4)c(C#N)c3)n2)cn1)N(C)C (stereo partly drawn) [DMX-18, N-(5-{4-[5-Cyano-6-((S)-3-fluoro-pyrrolidin-1-yl)-pyridin-3-yl]-pyrimidin-2-ylamino}-pyridin-2-yl)-2-dimethylamino-propionamide]
18 | < 100 | < 100 | N#Cc1cc(-c2nc(Nc3ccc(NC(=O)CN4CCOCC4)nc3)ncc2F)cnc1N1CC[C@H](F)C1 [DMX-88, N-(5-{4-[5-Cyano-6-((S)-3-fluoro-pyrrolidin-1-yl)-pyridin-3-yl]-5-fluoro-pyrimidin-2-ylamino}-pyridin-2-yl)-2-morpholin-4-yl-acetamide]
19 | < 30 | < 100 | N#Cc1cc(-c2ccnc(Nc3ccc(CN4CCOCC4)nc3)n2)cnc1N1CCC2(COC2)C1 [DMX-92, 5-[2-(6-Morpholin-4-ylmethyl-pyridin-3-ylamino)-pyrimidin-4-yl]-2-(2-oxa-6-aza-spiro[3.4]oct-6-yl)-nicotinonitrile]
20 | < 1000 | < 100 | Cn1cc(NC(=O)[C@H]2CCCN2c2ncc(-c3ccnc(Nc4cnn(C)c4)n3)cc2C#N)cn1 [DMX-41, (R)-1-{3-Cyano-5-[2-(1-methyl-1H-pyrazol-4-ylamino)-pyrimidin-4-yl]-pyridin-2-yl}-pyrrolidine-2-carboxylic acid (1-methyl-1H-pyrazol-4-yl)-amide]
21 | < 100 | < 30 | C[C@H]1COCCN1Cc1ccc(Nc2nccc(-c3cnc(N4CC[C@H](F)C4)c(C#N)c3)n2)cn1 [DMX-79, 2-((S)-3-Fluoro-pyrrolidin-1-yl)-5-{2-[6-((S)-3-methyl-morpholin-4-ylmethyl)-pyridin-3-ylamino]-pyrimidin-4-yl}-nicotinonitrile]
22 | < 15 | < 15 | N#Cc1cc(-c2ccnc(Nc3ccc(CN4CCOCC4)cc3)n2)cnc1N1CC[C@H](F)C1 [DMX-30, 2-((S)-3-Fluoro-pyrrolidin-1-yl)-5-[2-(4-morpholin-4-ylmethyl-phenylamino)-pyrimidin-4-yl]-nicotinonitrile]
23 | < 1000 | < 100 | N#Cc1cc(-c2nc(Nc3ccnc(NC(=O)CN4CCOCC4)c3)ncc2F)cnc1NC1CC1 [DMX-124, N-{4-[4-(5-Cyano-6-cyclopropylamino-pyridin-3-yl)-5-fluoro-pyrimidin-2-ylamino]-pyridin-2-yl}-2-morpholin-4-yl-acetamide]
24 | < 15 | < 15 | N#Cc1nc(-c2ccnc(Nc3ccc(CN4CCOCC4)nc3)n2)ccc1N1CC[C@H](F)C1 [DMX-143, 3-((S)-3-Fluoro-pyrrolidin-1-yl)-6-[2-(6-morpholin-4-ylmethyl-pyridin-3-ylamino)-pyrimidin-4-yl]-pyridine-2-carbonitrile]
25 | < 9000 | < 1000 | Cn1cc(Nc2nccc(-c3cnc(N4CCC[C@@H]4C(=O)O)c(C#N)c3)n2)cn1 [DMX-40, (R)-1-{3-Cyano-5-[2-(1-methyl-1H-pyrazol-4-ylamino)-pyrimidin-4-yl]-pyridin-2-yl}-pyrrolidine-2-carboxylic acid]
26 | < 1000 | < 1000 | COCCN(C)c1ncc(-c2ccnc(Nc3ccc(CN4CCOCC4)nc3)n2)cc1C#N [DMX-140, 2-[(2-Methoxy-ethyl]-methyl-amino]-5-[2-(6-morpholin-4-ylmethyl-pyridin-3-ylamino)-pyrimidin-4-yl]-nicotinonitrile]
27 | < 30 | < 15 | N#Cc1cc(-c2ccnc(Nc3cnn(C[C@@H](O)CO)c3)n2)cnc1N1CCCC1 [DMX-39, 5-{2-[1-((R)-2,3-Dihydroxy-propyl)-1H-pyrazol-4-ylamino]-pyrimidin-4-yl}-2-pyrrolidin-1-yl-nicotinonitrile]

Row | Structure (SMILES) | IC50 (IKKε) [nM] | IC50 (TBK1) [nM]
28 | Cn1cc(Nc2nccc(-c3cnc(N4C5CCC4COC5)c(C#N)c3)n2)cn1 [DMX-45, 5-[2-(1-Methyl-1H-pyrazol-4-ylamino)-pyrimidin-4-yl]-2-(3-oxa-8-aza-bicyclo[3.2.1]oct-8-yl)-nicotinonitrile] | < 100 | < 100
29 | N#Cc1cc(-c2ccnc(Nc3cnn(CCO)c3)n2)cnc1N1C2CCC1COC2 [DMX-46, 5-{2-[1-(2-Hydroxy-ethyl)-1H-pyrazol-4-ylamino]-pyrimidin-4-yl}-2-(3-oxa-8-aza-bicyclo[3.2.1]oct-8-yl)-nicotinonitrile] | < 1000 | < 100
